Measurements taken from ChEMBL document CHEMBL3885861, “Open TG-GATES”.

Organism: Rattus norvegicus
Experiment: Open TG-GATES - Regimen: Daily Repeat
Format: toxicity, organism-based, Sprague-Dawley
Set-up: regimen Daily Repeat, gender Male, age 6 weeks
Conditions: in vivo, po, 0 mg/kg, route gavage, dose level Control; for APTT / Bas / Eos / Fbg / Hb / Ht / Lym / MCH / MCHC / MCV / Mono / Neu / PT / Plat / RBC / Ret / WBC: tissue Blood; for KIDNEY_L / KIDNEY_R / KIDNEY_TOTAL: tissue Kidney; for LIVER: tissue Liver; for ALP / ALT / AST / BUN / CRE / Ca / DBIL / GLC / IP / K / LDH / Na / PL / RALB / TBIL / TC / TG / TP / gamma-GTP: tissue Plasma

Structure (SMILES): Oc1ncnc2[nH]ncc12 [ALLOPURINOL]
- TERMINAL_BW (72 h, time 3 day): 244.3 g
- APTT (72 h, time 3 day): 16.6 s
- Bas (72 h, time 3 day): 0%
- Eos (72 h, time 3 day): 0.8%
- Fbg (72 h, time 3 day): 237 mg/dL
- Hb (72 h, time 3 day): 13.9 g/dL
- Ht (72 h, time 3 day): 41.5%
- Lym (72 h, time 3 day): 74.6%
- MCH (72 h, time 3 day): 22.3 pg
- MCHC (72 h, time 3 day): 33.3%
- MCV (72 h, time 3 day): 66.7 fL
- Mono (72 h, time 3 day): 11.6%
- Neu (72 h, time 3 day): 12.8%
- PT (72 h, time 3 day): 11.9 s
- Plat (72 h, time 3 day): 93.5 x10_4/uL
- RBC (72 h, time 3 day): 623.2 x10_4/ul
- Ret (72 h, time 3 day): 7.7%
- WBC (72 h, time 3 day): 127.2 x10_2/uL
- KIDNEY_L (72 h, time 3 day): 1 g
- KIDNEY_R (72 h, time 3 day): 1 g
- KIDNEY_TOTAL (72 h, time 3 day): 2.1 g
- LIVER (72 h, time 3 day): 12.2 g
- ALP (72 h, time 3 day): 863.2 IU/L
- ALT (72 h, time 3 day): 34.2 IU/L
- AST (72 h, time 3 day): 58.2 IU/L
- BUN (72 h, time 3 day): 18.2 mg/dL
- CRE (72 h, time 3 day): 0.5 mg/dL
- Ca (72 h, time 3 day): 11.4 mg/dL
- DBIL (72 h, time 3 day): 0 mg/dL
- GLC (72 h, time 3 day): 201.6 mg/dL
- IP (72 h, time 3 day): 8.1 mg/dL
- K (72 h, time 3 day): 4.9 meq/L
- LDH (72 h, time 3 day): 84.6 IU/L
- Na (72 h, time 3 day): 137.8 meq/L
- PL (72 h, time 3 day): 174.6 mg/dL
- RALB (72 h, time 3 day): 3.9 g/dL
- TBIL (72 h, time 3 day): 0.2 mg/dL
- TC (72 h, time 3 day): 87.8 mg/dL
- TG (72 h, time 3 day): 130 mg/dL
- TP (72 h, time 3 day): 6 g/dL
- gamma-GTP (72 h, time 3 day): 1.2 IU/L
- TERMINAL_BW ([…], time 7 day): 249.8 g
- TERMINAL_BW ([…], time 14 day): 318.9 g
- TERMINAL_BW ([…], time 28 day): 401.4 g
- APTT ([…], time 7 day): 17.2 s
- Bas ([…], time 7 day): 0%
- Eos ([…], time 7 day): 1%
- Fbg ([…], time 7 day): 242.2 mg/dL
- Hb ([…], time 7 day): 15 g/dL
- Ht ([…], time 7 day): 45.2%
- Lym ([…], time 7 day): 77.8%
- MCH ([…], time 7 day): 20.4 pg
- MCHC ([…], time 7 day): 33.2%
- MCV ([…], time 7 day): 61.4 fL
- Mono ([…], time 7 day): 4.8%
- Neu ([…], time 7 day): 16.8%
- PT ([…], time 7 day): 12 s
- Plat ([…], time 7 day): 118.1 x10_4/uL
- RBC ([…], time 7 day): 737.4 x10_4/ul
- Ret ([…], time 7 day): 4.5%
- APTT ([…], time 14 day): 16.9 s
- Bas ([…], time 14 day): 0%
- Eos ([…], time 14 day): 1%
- Fbg ([…], time 14 day): 227 mg/dL
- Hb ([…], time 14 day): 14.5 g/dL
- Ht ([…], time 14 day): 44%
- Lym ([…], time 14 day): 76.4%
- MCH ([…], time 14 day): 19.9 pg
- MCHC ([…], time 14 day): 33%
- MCV ([…], time 14 day): 60.5 fL
- Mono ([…], time 14 day): 6%
- Neu ([…], time 14 day): 16.8%
- PT ([…], time 14 day): 11.9 s
- Plat ([…], time 14 day): 97.7 x10_4/uL
- RBC ([…], time 14 day): 728 x10_4/ul
- Ret ([…], time 14 day): 3.7%
- APTT ([…], time 28 day): 16.3 s
- Bas ([…], time 28 day): 0%
- Eos ([…], time 28 day): 1%
- Fbg ([…], time 28 day): 230.6 mg/dL
- Hb ([…], time 28 day): 14.8 g/dL
- Ht ([…], time 28 day): 44.2%
- Lym ([…], time 28 day): 80.8%
- MCH ([…], time 28 day): 19.3 pg
- MCHC ([…], time 28 day): 33.5%
- MCV ([…], time 28 day): 57.6 fL
- Mono ([…], time 28 day): 6.2%
- Neu ([…], time 28 day): 11.8%
- PT ([…], time 28 day): 12.3 s
- Plat ([…], time 28 day): 109.3 x10_4/uL
- RBC ([…], time 28 day): 766.8 x10_4/ul
- Ret ([…], time 28 day): 3.5%
- WBC ([…], time 28 day): 163 x10_2/uL
- KIDNEY_L ([…], time 7 day): 1.1 g
- KIDNEY_R ([…], time 7 day): 1.1 g
- KIDNEY_TOTAL ([…], time 7 day): 2.1 g
- KIDNEY_L ([…], time 14 day): 1.2 g
- KIDNEY_R ([…], time 14 day): 1.2 g
- KIDNEY_TOTAL ([…], time 14 day): 2.5 g
- KIDNEY_L ([…], time 28 day): 1.4 g
- KIDNEY_R ([…], time 28 day): 1.4 g
- KIDNEY_TOTAL ([…], time 28 day): 2.8 g
- LIVER ([…], time 14 day): 14.3 g
- LIVER ([…], time 28 day): 16.2 g
- ALP ([…], time 7 day): 874.8 IU/L
- ALT ([…], time 7 day): 26 IU/L
- AST ([…], time 7 day): 56.2 IU/L
- BUN ([…], time 7 day): 22.4 mg/dL
- CRE ([…], time 7 day): 0.5 mg/dL
- DBIL ([…], time 7 day): 0.06 mg/dL
- GLC ([…], time 7 day): 203 mg/dL
- IP ([…], time 7 day): 7.7 mg/dL
- K ([…], time 7 day): 4.6 meq/L
- LDH ([…], time 7 day): 86.2 IU/L
- Na ([…], time 7 day): 136.6 meq/L
- PL ([…], time 7 day): 135.4 mg/dL
- RALB ([…], time 7 day): 4 g/dL
- TBIL ([…], time 7 day): 0.3 mg/dL
- TC ([…], time 7 day): 68.2 mg/dL
- TG ([…], time 7 day): 60.4 mg/dL
- TP ([…], time 7 day): 6.2 g/dL
- gamma-GTP ([…], time 7 day): 1.2 IU/L
- ALP ([…], time 14 day): 710.4 IU/L
- ALT ([…], time 14 day): 32 IU/L
- AST ([…], time 14 day): 62.8 IU/L
- BUN ([…], time 14 day): 17.8 mg/dL
- CRE ([…], time 14 day): 0.6 mg/dL
- Ca ([…], time 14 day): 10.9 mg/dL
- DBIL ([…], time 14 day): 0.01 mg/dL
- GLC ([…], time 14 day): 206.4 mg/dL
- IP ([…], time 14 day): 7.9 mg/dL
- K ([…], time 14 day): 4.3 meq/L
- LDH ([…], time 14 day): 69.8 IU/L
- Na ([…], time 14 day): 139.8 meq/L
- PL ([…], time 14 day): 150 mg/dL
- RALB ([…], time 14 day): 3.6 g/dL
- TBIL ([…], time 14 day): 0.3 mg/dL
- TC ([…], time 14 day): 70 mg/dL
- TG ([…], time 14 day): 118 mg/dL
- TP ([…], time 14 day): 6 g/dL
- gamma-GTP ([…], time 14 day): 1.6 IU/L
- ALP ([…], time 28 day): 602.4 IU/L
- ALT ([…], time 28 day): 31.6 IU/L
- AST ([…], time 28 day): 61.8 IU/L
- BUN ([…], time 28 day): 20 mg/dL
- CRE ([…], time 28 day): 0.4 mg/dL
- DBIL ([…], time 28 day): 0.018 mg/dL
- GLC ([…], time 28 day): 186 mg/dL
- IP ([…], time 28 day): 6.5 mg/dL
- K ([…], time 28 day): 4.7 meq/L
- LDH ([…], time 28 day): 81 IU/L
- Na ([…], time 28 day): 138.8 meq/L
- PL ([…], time 28 day): 146.2 mg/dL
- RALB ([…], time 28 day): 3.8 g/dL
- TBIL ([…], time 28 day): 0.3 mg/dL
- TC ([…], time 28 day): 67.2 mg/dL
- TG ([…], time 28 day): 147.4 mg/dL
- TP ([…], time 28 day): 6.2 g/dL
- gamma-GTP ([…], time 28 day): 1.4 IU/L
